This passage reports IC50, ED50 and solubility results from ChEMBL document CHEMBL1125343, “Molecular yardsticks. Rigid probes to define the spatial dimensions of the benzodiazepine receptor binding site” (J Med Chem, 1992).

The target in series [1] is GABA-A receptor; anion channel. Nature of the series: In vitro affinity at the Benzodiazepine receptor (BzR) is its ability to displace [3H]diazepam from BzR. Type of series: protein-complex assay, Rattus norvegicus.
The test system of series [2] is Mus musculus. Description: Dose required to induce convulsions in 50% of the mice.(In vivo proconvulsant activity.).
Series [3] in a line: Solubility in water. Type of series: physicochemical. Conditions: read-out: S.
Series [4] has as its system Mus musculus. Description: In vivo dose required to induce convulsions in 50% of the mice previously treated by a subconvulsant dose of pentylenetetrazole (40 mg/kg).
In series [5] the test system is Rattus norvegicus. Description: In vivo proconvulsant activity in rats. Type of series: functional.
Series [6] deals with Monkey. Description: Anxiogenic activity in vivo in Rhesus monkeys; Potent activity. Format: functional, organism-based. Conditions: Cercopithecidae.
The subject of series [7] is Mus musculus. Nature of the series: Dose required to induce convulsions in 50% of the mice that had been previously treated by a subconvulsant dose of pentylenetetrazole (40 mg/kg).
Series [8] relates to Monkey. Nature of the series: Anxiogenic activity in vivo in Rhesus monkeys. Format: functional. Conditions: Cercopithecidae, in Macaca mulatta.
Series [9] is filed under the species Rattus norvegicus. Nature of the series: Dose required to induce convulsions in 50% of the rats. Type of series: functional.
Series [10] concerns Mus musculus. Description: Dose required to induce convulsions in 50% of the mice.(In vivo convulsant activity.).

Each structure is given as a SMILES string. Active and inactive are the calls of the source. No cut-off for these calls is given here.

As to `c1ccc2c3c4ncc5[nH]c6ccccc6c5c4nc-3c[nH]c2c1`, the IC50 (as a rule, the point on the concentration scale where inhibition reaches its midpoint) in [1] is > 1000 nM.

Take `Cl.c1ccc2c(c1)[nH]c1c2ncc2[nH]c3ccccc3c21`: the median effective dose (ED50) (commonly the dose at which the effect has come halfway, by size or by number of responders) in series [2] amounted to 15.5 mg/kg. The solubility in [3] was < 2000 µg/mL.

The compound `Cl.c1ccc2c(c1)[nH]c1c[nH]c3c4cccnc4nc-3c12` yielded an IC50 in series [1] of 10.6 nM. Besides, the solubility in series [3] turned out to be 7600 µg/mL. In addition, the 50% effect level in series [4] (ED50) was put at a dose of 11 mg/kg.

`c1ccc2c(c1)ccc1nc3c4c5ccccc5nc-4c[nH]c3n12`: the IC50 in [1] is > 3000 nM.

`c1ccc2c(c1)ccc1c3[nH]cc4nc5ccccc5c-4c3[nH]c21`: the IC50 in [1] was > 125 nM.

Turning to `c1ccc2c(c1)[nH]c1cnc3c(nc4ccccn43)c12`, the IC50 in series [1] is 39 nM.

Consider `CCOc1cc2c3ccccc3nc-2c[nH]1.Cl`, for which the ED50 in series [5] and in series [7] was 7 mg/kg each time. The compound also gave a concentration for half-maximal inhibition (IC50) in series [1] of 24 nM. Further, in series [3], the solubility was determined as 12000 µg/mL. Further, the ED50 result in [6] is “Active”.

For the compound `CCOC(=O)c1cc2c(cn1)[nH]c1ccccc12`, the 50% effective dose (ED50) was 75 mg/kg in [5], 2.5 mg/kg in series [8] and 3.2 mg/kg in series [9]. The solubility in series [3] was < 200 µg/mL.

In the case of `Cl.c1ccc2c(c1)[nH]c1c[nH]c3c4ccncc4nc-3c12`, the concentration for half-maximal inhibition (IC50) in [1] stood at 51.5 nM. The solubility in series [3] stood at 13000 µg/mL. In [4], this compound gave a median effective dose (ED50) of 25 mg/kg.

With `CCOC(=O)c1cc2c3ccccc3nc-2c[nH]1.Cl`, the solubility in series [3] was found to be 1000 µg/mL.

In the case of `CCc1c(C(=O)OC)[nH]cc2nc3cc(OC)c(OC)cc3c1-2.Cl`, the median effective dose (ED50) in [10] stood at 4 mg/kg. Further, the IC50 in [1] came to 1 nM. In [3], the solubility is < 200 µg/mL.

`c1ccc2c(c1)ccc1[nH]c3c4c5ccccc5nc-4c[nH]c3c12`: the IC50 in series [1] was > 125 nM.

`c1ccc2c(c1)cnn1c2nc2c3c4ccccc4nc-3c[nH]c21` gave a half-maximal inhibitory concentration (IC50) in [1] of 200 nM.

As to `c1ccc2c(c1)ccn1c2nc2c3c4ccccc4nc-3c[nH]c21`, in series [1], the IC50 was > 2000 nM.

Turning to `Cl.c1cnc2c3[nH]cc4[nH]c5ccccc5c4c-3nc2c1`, the IC50 in series [1] was 10.2 nM. In addition, in series [3], the solubility turned out to be 11000 µg/mL.
